The values below come from ChEMBL document CHEMBL4665875, “Synthesis, biological evaluation and in silico modeling of novel pan-genotypic NS5A inhibitors” (Bioorg Med Chem, 2020).

For data set [1], the target named is T1, Nonstructural protein 5A (Hepatitis C virus) (UniProt Q5L478).
T1 sequence (whole entry): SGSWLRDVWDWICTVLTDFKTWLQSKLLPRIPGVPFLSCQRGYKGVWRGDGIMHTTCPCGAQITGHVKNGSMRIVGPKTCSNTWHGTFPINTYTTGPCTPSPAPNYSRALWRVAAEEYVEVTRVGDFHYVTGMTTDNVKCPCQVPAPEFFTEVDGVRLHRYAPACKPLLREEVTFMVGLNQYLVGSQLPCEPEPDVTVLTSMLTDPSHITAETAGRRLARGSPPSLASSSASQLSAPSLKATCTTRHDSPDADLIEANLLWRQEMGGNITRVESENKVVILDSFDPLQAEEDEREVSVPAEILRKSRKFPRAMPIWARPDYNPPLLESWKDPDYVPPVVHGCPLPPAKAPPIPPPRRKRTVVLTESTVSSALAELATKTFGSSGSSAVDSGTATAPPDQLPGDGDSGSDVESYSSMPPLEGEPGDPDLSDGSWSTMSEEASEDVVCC
Briefly: Potency index, ratio of AV-4025 IC50 to test compound IC50 for inhibition of HCV genotype 3a NS5A infected in Huh7 cells assessed as reduction in viral replication incubated 3 days and measured by bright Glo-luciferase reporter gene assay. Format: cell-based. As to conditions: Hepatitis C virus subtype 3a; time 3.0 day.

Data set [2] in a line: Cytotoxicity against HCV genotype 1b NS5A infected human HuH7 cells assessed as reduction in cell viability measured after 72 hrs by CellTiter-Glo assay. The following applies: HuH7 cells infected with HCV genotype 1b NS5A.

Usually CC50 stands for the concentration that lowers cell viability or growth by half. On to `COC(=O)NC(C(=O)N1CCC[C@H]1c1ncc(-c2ccc(C#CC#Cc3cnc([C@@H]4CCCN4C(=O)C(NC(=O)OC)C(C)C)[nH]3)cc2)[nH]1)c1ccccc1` (single isomer, unassigned), for which the Ratio IC50 in data set [1] was 6.8. Besides, the CC50 at 72 h in data set [2] is above 10 µM.
Regarding `COC(=O)N[C@H](C(=O)N1CCC[C@H]1c1ncc(-c2ccc(C#CC#Cc3cnc([C@@H]4CCCN4C(=O)[C@H](NC(=O)OC)c4ccccc4)[nH]3)cc2)[nH]1)C(C)C`, the Ratio IC50 in data set [1] stood at 13. For the same compound, the CC50 at 72 h in data set [2] was above 10 µM.
